Assay results published in patent publication US7981922B2, “Angiotensin I-converting enzyme (ACE) inhibitors” (University of Cape Town, priority 2005, dated 2011).

Tests used:
[1] = test system: ACE C-domain; conditions: C-domain versus N-domain of ACE; cited from earlier work
[2] = target: tACEdelta36NJ (Homo sapiens, UniProt P12821); assay: ACE inhibitory activity, fluorometric determination of His-Leu, tACE; assay type: biochemical; conditions: for C domain-selectivity: C domain (tACE) versus N domain; for Ki: substrate Z-Phe-His-Leu, enzyme + inhibitor 3 hours at ambient temperature, read-out: Ki (tACE) ZPHL
Protocol: (§1) The ACE inhibitory activity (as tabulated in Table 1) was measured by the fluorometric determination of pthaldialdehyde-derivatised histidylleucine, a product of the enzyme reaction according to the method of Almquist et al.,^12 with some modifications. For tACEdelta36NJ and N-domain inhibition using Z-Phe-His-Leu as substrate: —10 μL of 0.05 mg/mL enzyme+120 μL inhibitor at ambient temperature for 3 hours. Inhibitor concentrations ranged from 2.0 μM to 500 μM. A 3.0 μL aliquot of this was assayed for enzyme activity using 30 μL of 1.0 mM […]. This was incubated (in triplicate) for 30 mins at 37° C. and stopped with 180 μL solution of 0.28N NaOH. To this alkalized mixture 12 μL of o-pthaldialdehyde (150 mM) was added and the mixture incubated for another 10 mins at room temperature. Reactions were stopped by adding 26 μL solution of 3N HCl. Fluorescence was measured at Ex=360 nm; Em=486 nm, 5×5 slit width along with a His-Leu standard calibration curve fluorometer: Varian Cary Eclipse plate reader.
(§2) All assays included enzyme incubated with buffer in the absence of inhibitor (i.e. 0 μM inhibitor concentration).

[3] = target: N-domain of ACE (Homo sapiens, UniProt P12821); assay: ACE inhibitory activity, fluorometric determination of His-Leu, N-domain; assay type: biochemical; conditions: substrate Z-Phe-His-Leu; no inhibition up to 500 μM; read-out: Ki (N-dom) ZPHL
Protocol: as §1, §2

tACEdelta36NJ, sequence (P12821 642-1230 limits assumed): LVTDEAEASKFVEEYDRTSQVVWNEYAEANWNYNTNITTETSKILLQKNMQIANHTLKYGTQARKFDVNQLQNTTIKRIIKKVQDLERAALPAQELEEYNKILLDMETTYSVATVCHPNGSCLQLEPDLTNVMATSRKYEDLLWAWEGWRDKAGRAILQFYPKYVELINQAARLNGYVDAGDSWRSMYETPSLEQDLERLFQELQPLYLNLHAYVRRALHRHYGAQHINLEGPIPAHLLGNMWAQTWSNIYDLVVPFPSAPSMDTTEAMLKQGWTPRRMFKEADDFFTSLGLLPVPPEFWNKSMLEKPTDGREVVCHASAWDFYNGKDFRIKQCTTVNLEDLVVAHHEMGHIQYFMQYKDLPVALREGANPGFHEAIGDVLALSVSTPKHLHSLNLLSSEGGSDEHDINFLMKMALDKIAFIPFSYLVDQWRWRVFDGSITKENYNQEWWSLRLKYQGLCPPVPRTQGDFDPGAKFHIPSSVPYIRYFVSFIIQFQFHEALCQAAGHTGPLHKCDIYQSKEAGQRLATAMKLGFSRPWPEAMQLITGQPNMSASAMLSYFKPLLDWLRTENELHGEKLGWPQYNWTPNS
N-domain of ACE, sequence (P12821 40-624 limits assumed): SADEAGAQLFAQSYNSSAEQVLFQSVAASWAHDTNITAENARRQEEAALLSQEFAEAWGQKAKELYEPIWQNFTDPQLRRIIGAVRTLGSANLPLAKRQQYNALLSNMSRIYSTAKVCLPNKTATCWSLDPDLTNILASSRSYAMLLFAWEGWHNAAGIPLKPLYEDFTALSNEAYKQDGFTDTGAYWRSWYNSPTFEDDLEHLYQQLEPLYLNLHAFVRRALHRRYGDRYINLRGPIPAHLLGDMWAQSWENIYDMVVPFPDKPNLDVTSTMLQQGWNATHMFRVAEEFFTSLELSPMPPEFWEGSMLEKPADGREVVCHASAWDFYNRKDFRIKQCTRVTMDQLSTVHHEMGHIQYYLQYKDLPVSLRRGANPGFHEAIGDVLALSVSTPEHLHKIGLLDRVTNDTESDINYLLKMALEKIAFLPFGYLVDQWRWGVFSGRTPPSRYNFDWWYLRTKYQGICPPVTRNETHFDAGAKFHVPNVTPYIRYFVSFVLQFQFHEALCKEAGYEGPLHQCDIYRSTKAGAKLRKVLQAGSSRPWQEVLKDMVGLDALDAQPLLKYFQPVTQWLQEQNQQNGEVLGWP

Row | Structure (SMILES) | C-domain selective [1] [fold] | C domain-selectivity [2] [fold] | Ki [2] [µM] | Ki [3] [µM]
1 | O=C(N[C@@H](Cc1ccccc1)P(=O)(O)C1CCCC1C(=O)N[C@@H](Cc1c[nH]c2ccccc12)C(=O)O)OCc1ccccc1 (stereo partly shown) [RXP A380] | ~3000 |  |  | 
2 | NCCCC[C@H](N[C@H](CCc1ccccc1)C(=O)O)C(=O)N[C@@H](Cc1c[nH]c2ccccc12)C(=O)O [Compound 6a] |  | > 72 | 7 | > 500
3 | NCCCC[C@H](N[C@@H](CCc1ccccc1)C(=O)O)C(=O)N[C@@H](Cc1c[nH]c2ccccc12)C(=O)O [Compound 6] |  | > 19 | 26.3 | > 500
